In ChEMBL document CHEMBL5058649, “Data for DCP probe BAY 1816032” (2022):
Active and inactive are the calls of the source. No cut-off for these calls is given here.

Assays:
[1] = target: 5-hydroxytryptamine receptor 1A (Homo sapiens, UniProt P08908); assay: GPCRScan assay: inhibition of 5-HT1A; set-up: radioligand conc. used [nm] 0.5 – 1.0, parental cells stable CHO
[2] = target: Sodium-dependent dopamine transporter (Homo sapiens, UniProt Q01959); assay: GPCRScan assay: inhibition of DAT; set-up: radioligand conc. used [nm] 3.6 – 16.0, parental cells stable HEK
[3] = target: Prostaglandin G/H synthase 1 (Homo sapiens) (UniProt P23219); assay: Inhibition of Cyclooxygenase COX-1 at compound concentration of 10.0 uM in the Eurofins-Panlabs enzyme assay (Eurofins_assay_116020); details: Compound concentration 10.0 uM
[4] = target: Mitotic checkpoint serine/threonine-protein kinase BUB1 (Homo sapiens, UniProt O43683); assay: BUB1 biochemical assay (low ATP)
[5] = target: Myosin light chain kinase (Homo sapiens) (UniProt Q32MK0); assay: MLCK DiscoveRx kinase panel; details: Compound concentration 1.0 uM
[6] = target: cGMP-dependent protein kinase 1 (Homo sapiens) (UniProt Q13976); assay: PRKG1 DiscoveRx kinase panel; details: Compound concentration 1.0 uM
[7] = target: Ephrin type-A receptor 5 (Homo sapiens) (UniProt P54756); assay: EPHA5 DiscoveRx kinase panel; details: Compound concentration 1.0 uM
[8] = target: Serine/threonine-protein kinase D3 (Homo sapiens) (UniProt O94806); assay: PRKD3 DiscoveRx kinase panel; details: Compound concentration 1.0 uM
[9] = target: Serine/threonine-protein kinase PAK 3 (Homo sapiens) (UniProt O75914); assay: PAK3 DiscoveRx kinase panel; details: Compound concentration 1.0 uM
[10] = target: Serine/threonine-protein kinase Nek9 (Homo sapiens) (UniProt Q8TD19); assay: NEK9 DiscoveRx kinase panel; details: Compound concentration 1.0 uM
[11] = target: Tyrosine-protein kinase Mer (Homo sapiens) (UniProt Q12866); assay: MERTK DiscoveRx kinase panel; details: Compound concentration 1.0 uM
[12] = target: Ephrin type-A receptor 3 (Homo sapiens) (UniProt P29320); assay: EPHA3 DiscoveRx kinase panel; details: Compound concentration 1.0 uM
[13] = target: Tyrosine-protein kinase JAK3 (Homo sapiens) (UniProt P52333); assay: JAK3(JH1domain-catalytic) DiscoveRx kinase panel; details: Compound concentration 1.0 uM
[14] = target: Serine/threonine-protein kinase WNK3 (Homo sapiens) (UniProt Q9BYP7); assay: WNK3 DiscoveRx kinase panel; details: Compound concentration 1.0 uM
[15] = target: Receptor-type tyrosine-protein kinase FLT3 (Homo sapiens) (UniProt P36888); assay: FLT3 DiscoveRx kinase panel; details: Compound concentration 1.0 uM
[16] = target: Serine/threonine-protein kinase RIO3 (Homo sapiens) (UniProt O14730); assay: RIOK3 DiscoveRx kinase panel; details: Compound concentration 1.0 uM
[17] = target: Testis-specific serine/threonine-protein kinase 3 (Homo sapiens) (UniProt Q96PN8); assay: TSSK3 DiscoveRx kinase panel; details: Compound concentration 1.0 uM
[18] = target: Inhibitor of nuclear factor kappa-B kinase subunit epsilon (Homo sapiens) (UniProt Q14164); assay: IKK-epsilon DiscoveRx kinase panel; details: Compound concentration 1.0 uM
[19] = target: Interleukin-1 receptor-associated kinase 3 (Homo sapiens) (UniProt Q9Y616); assay: IRAK3 DiscoveRx kinase panel; details: Compound concentration 1.0 uM
[20] = target: Mitogen-activated protein kinase 1 (Homo sapiens) (UniProt P28482); assay: ERK2 DiscoveRx kinase panel; details: Compound concentration 1.0 uM
[21] = target: Tyrosine-protein kinase ABL1 (Homo sapiens) (UniProt P00519); assay: ABL1-phosphorylated DiscoveRx kinase panel; details: Compound concentration 1.0 uM
[22] = target: Mitogen-activated protein kinase 7 (Homo sapiens) (UniProt Q13164); assay: ERK5 DiscoveRx kinase panel; details: Compound concentration 1.0 uM
[23] = target: Serine/threonine-protein kinase TBK1 (Homo sapiens) (UniProt Q9UHD2); assay: TBK1 DiscoveRx kinase panel; details: Compound concentration 1.0 uM
[24] = target: 5'-AMP-activated protein kinase catalytic subunit alpha-2 (Homo sapiens) (UniProt P54646); assay: AMPK-alpha2 DiscoveRx kinase panel; details: Compound concentration 1.0 uM
[25] = target: Serine/threonine-protein kinase tousled-like 2 (Homo sapiens) (UniProt Q86UE8); assay: TLK2 DiscoveRx kinase panel; details: Compound concentration 1.0 uM
[26] = target: Wee1-like protein kinase 2 (Homo sapiens) (UniProt P0C1S8); assay: WEE2 DiscoveRx kinase panel; details: Compound concentration 1.0 uM
[27] = target: Mitogen-activated protein kinase kinase kinase 19 (Homo sapiens) (UniProt Q56UN5); assay: YSK4 DiscoveRx kinase panel; details: Compound concentration 1.0 uM
[28] = target: Dual specificity mitogen-activated protein kinase kinase 7 (Homo sapiens) (UniProt O14733); assay: MKK7 DiscoveRx kinase panel; details: Compound concentration 1.0 uM
[29] = target: Atypical kinase COQ8B, mitochondrial (Homo sapiens) (UniProt Q96D53); assay: ADCK4 DiscoveRx kinase panel; details: Compound concentration 1.0 uM
[30] = target: Macrophage colony-stimulating factor 1 receptor (Homo sapiens) (UniProt P07333); assay: CSF1R DiscoveRx kinase panel; details: Compound concentration 1.0 uM
[31] = target: Calcium/calmodulin-dependent protein kinase kinase 2 (Homo sapiens) (UniProt Q96RR4); assay: CAMKK2 DiscoveRx kinase panel; details: Compound concentration 1.0 uM
[32] = target: Cyclin-dependent kinase 7 (Homo sapiens) (UniProt P50613); assay: CDK7 DiscoveRx kinase panel; details: Compound concentration 1.0 uM
[33] = target: Epidermal growth factor receptor (Homo sapiens) (UniProt P00533); assay: EGFR DiscoveRx kinase panel; details: Compound concentration 1.0 uM
[34] = target: Ephrin type-A receptor 2 (Homo sapiens) (UniProt P29317); assay: EPHA2 DiscoveRx kinase panel; details: Compound concentration 1.0 uM
[35] = target: Serine/threonine-protein kinase LATS2 (Homo sapiens) (UniProt Q9NRM7); assay: LATS2 DiscoveRx kinase panel; details: Compound concentration 1.0 uM
[36] = target: Serine/threonine-protein kinase STK11 (Homo sapiens) (UniProt Q15831); assay: LKB1 DiscoveRx kinase panel; details: Compound concentration 1.0 uM
[37] = target: Dual specificity mitogen-activated protein kinase kinase 3 (Homo sapiens) (UniProt P46734); assay: MEK3 DiscoveRx kinase panel; details: Compound concentration 1.0 uM
[38] = target: Serine/threonine-protein kinase mTOR (Homo sapiens) (UniProt P42345); assay: MTOR DiscoveRx kinase panel; details: Compound concentration 1.0 uM
[39] = target: Cyclin-dependent kinase 16 (Homo sapiens) (UniProt Q00536); assay: PCTK1 DiscoveRx kinase panel; details: Compound concentration 1.0 uM
[40] = target: Rho-associated protein kinase 2 (Homo sapiens) (UniProt O75116); assay: ROCK2 DiscoveRx kinase panel; details: Compound concentration 1.0 uM
[41] = target: Serine/threonine-protein kinase SBK1 (Homo sapiens) (UniProt Q52WX2); assay: SBK1 DiscoveRx kinase panel; details: Compound concentration 1.0 uM
[42] = target: Serine/threonine-protein kinase TAO3 (Homo sapiens) (UniProt Q9H2K8); assay: TAOK3 DiscoveRx kinase panel; details: Compound concentration 1.0 uM
[43] = target: Vascular endothelial growth factor receptor 2 (Homo sapiens) (UniProt P35968); assay: VEGFR2 DiscoveRx kinase panel; details: Compound concentration 1.0 uM
[44] = target: Muscarinic acetylcholine receptor M1 (Homo sapiens) (UniProt P11229); assay: Muscarinic M1 Eurofins-Panlabs radioligand binding assay; details: Compound concentration 10.0 uM
SK-BR-3 = assay: SK-BR-3 cell line Proliferation assay; format: functional, Homo sapiens; details: time 4 day
Caco-2 = assay: Caco2 cell line Proliferation assay; format: functional, Homo sapiens; details: time 4 day
[45] = target: Kappa-type opioid receptor (Homo sapiens) (UniProt P41145); details: Compound concentration 10.0 uM

Sequence of Sodium-dependent dopamine transporter (Q01959 whole entry): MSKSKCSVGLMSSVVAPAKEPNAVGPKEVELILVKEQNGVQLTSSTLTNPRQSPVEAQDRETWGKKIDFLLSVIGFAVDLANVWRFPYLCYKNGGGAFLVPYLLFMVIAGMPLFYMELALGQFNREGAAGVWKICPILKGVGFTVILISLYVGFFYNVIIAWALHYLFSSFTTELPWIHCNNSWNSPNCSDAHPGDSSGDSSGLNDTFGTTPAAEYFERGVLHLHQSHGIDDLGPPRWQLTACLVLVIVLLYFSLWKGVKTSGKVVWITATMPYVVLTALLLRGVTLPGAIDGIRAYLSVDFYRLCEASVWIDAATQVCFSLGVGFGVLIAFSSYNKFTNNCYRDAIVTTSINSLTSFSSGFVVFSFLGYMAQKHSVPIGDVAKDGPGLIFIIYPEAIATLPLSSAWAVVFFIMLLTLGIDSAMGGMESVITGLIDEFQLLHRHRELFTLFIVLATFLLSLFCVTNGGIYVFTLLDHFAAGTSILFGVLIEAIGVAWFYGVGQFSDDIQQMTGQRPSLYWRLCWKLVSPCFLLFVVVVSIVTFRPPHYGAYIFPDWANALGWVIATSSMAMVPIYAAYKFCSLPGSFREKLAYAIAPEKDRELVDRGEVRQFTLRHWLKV
Sequence of Serine/threonine-protein kinase TAO3 (Homo sapiens) (Q9H2K8 whole entry): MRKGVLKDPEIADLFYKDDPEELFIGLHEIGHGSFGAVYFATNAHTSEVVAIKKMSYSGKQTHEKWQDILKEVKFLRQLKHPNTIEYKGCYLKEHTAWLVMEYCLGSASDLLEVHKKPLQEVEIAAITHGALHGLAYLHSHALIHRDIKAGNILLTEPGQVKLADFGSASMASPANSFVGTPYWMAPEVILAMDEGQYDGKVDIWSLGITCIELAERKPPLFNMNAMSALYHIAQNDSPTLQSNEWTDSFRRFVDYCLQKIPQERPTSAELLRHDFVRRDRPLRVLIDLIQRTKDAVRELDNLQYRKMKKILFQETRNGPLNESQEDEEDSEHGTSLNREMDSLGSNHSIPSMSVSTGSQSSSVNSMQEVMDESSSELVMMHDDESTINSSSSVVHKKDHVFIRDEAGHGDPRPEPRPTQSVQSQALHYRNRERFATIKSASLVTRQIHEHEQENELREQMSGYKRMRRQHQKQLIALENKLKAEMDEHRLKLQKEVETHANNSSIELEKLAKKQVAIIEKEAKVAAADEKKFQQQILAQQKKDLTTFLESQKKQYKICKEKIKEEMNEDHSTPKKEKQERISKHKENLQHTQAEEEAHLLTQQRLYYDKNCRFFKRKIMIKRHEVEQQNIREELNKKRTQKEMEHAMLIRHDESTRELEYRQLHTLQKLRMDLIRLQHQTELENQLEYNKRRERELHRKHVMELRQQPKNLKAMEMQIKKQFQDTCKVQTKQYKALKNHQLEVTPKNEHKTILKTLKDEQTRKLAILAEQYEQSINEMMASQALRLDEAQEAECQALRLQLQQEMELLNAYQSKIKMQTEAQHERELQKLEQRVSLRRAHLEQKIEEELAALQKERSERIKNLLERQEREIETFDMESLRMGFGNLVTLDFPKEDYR
Sequence of Macrophage colony-stimulating factor 1 receptor (Homo sapiens) (P07333 whole entry): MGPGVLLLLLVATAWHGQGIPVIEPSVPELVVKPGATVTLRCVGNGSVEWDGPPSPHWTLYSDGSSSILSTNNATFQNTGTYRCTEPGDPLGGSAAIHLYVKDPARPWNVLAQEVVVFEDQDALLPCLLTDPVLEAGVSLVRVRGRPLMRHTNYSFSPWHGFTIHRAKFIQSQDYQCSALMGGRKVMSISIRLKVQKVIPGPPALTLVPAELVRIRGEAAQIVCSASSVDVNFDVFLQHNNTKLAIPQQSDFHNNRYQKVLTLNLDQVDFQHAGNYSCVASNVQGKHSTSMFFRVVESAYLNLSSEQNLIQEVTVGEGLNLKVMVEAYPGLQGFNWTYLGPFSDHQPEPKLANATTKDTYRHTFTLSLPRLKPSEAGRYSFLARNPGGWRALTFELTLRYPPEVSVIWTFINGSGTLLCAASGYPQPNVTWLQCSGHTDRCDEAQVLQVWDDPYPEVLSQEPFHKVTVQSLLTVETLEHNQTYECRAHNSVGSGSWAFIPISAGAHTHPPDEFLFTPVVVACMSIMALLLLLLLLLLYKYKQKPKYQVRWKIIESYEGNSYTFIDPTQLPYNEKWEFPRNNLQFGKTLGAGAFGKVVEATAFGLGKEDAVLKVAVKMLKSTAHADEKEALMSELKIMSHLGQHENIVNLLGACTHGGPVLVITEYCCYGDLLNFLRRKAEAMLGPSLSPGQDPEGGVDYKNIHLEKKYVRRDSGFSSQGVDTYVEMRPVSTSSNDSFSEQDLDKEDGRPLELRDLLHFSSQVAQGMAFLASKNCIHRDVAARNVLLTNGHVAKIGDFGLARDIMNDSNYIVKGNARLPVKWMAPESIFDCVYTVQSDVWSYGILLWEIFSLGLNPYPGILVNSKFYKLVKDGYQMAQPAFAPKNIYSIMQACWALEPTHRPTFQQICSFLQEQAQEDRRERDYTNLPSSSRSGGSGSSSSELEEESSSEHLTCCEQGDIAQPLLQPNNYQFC
Sequence of Serine/threonine-protein kinase D3 (Homo sapiens) (O94806 whole entry): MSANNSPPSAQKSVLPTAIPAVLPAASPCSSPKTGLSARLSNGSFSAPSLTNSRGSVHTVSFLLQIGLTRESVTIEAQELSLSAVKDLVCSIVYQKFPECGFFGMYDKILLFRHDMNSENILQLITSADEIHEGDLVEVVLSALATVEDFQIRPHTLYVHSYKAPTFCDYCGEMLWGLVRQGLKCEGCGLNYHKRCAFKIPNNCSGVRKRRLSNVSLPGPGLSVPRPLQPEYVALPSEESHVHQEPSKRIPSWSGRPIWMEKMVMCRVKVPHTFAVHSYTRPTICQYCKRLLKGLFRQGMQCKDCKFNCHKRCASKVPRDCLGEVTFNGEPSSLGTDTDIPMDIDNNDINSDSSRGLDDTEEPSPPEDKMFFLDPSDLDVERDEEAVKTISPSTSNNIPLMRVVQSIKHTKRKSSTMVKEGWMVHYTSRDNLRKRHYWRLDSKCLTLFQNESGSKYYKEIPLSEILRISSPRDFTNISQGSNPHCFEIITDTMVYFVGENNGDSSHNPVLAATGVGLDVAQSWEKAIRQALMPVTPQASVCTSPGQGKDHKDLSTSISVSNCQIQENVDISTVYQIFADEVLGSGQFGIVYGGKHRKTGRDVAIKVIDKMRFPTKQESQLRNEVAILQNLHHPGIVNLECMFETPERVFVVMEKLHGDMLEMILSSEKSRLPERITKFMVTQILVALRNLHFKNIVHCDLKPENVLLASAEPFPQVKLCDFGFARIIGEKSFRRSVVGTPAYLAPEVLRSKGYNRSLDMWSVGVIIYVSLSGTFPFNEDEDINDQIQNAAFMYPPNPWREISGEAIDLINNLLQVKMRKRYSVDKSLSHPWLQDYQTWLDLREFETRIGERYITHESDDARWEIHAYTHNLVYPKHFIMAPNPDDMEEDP
Sequence of Mitogen-activated protein kinase 7 (Homo sapiens) (Q13164 2-816 limits assumed): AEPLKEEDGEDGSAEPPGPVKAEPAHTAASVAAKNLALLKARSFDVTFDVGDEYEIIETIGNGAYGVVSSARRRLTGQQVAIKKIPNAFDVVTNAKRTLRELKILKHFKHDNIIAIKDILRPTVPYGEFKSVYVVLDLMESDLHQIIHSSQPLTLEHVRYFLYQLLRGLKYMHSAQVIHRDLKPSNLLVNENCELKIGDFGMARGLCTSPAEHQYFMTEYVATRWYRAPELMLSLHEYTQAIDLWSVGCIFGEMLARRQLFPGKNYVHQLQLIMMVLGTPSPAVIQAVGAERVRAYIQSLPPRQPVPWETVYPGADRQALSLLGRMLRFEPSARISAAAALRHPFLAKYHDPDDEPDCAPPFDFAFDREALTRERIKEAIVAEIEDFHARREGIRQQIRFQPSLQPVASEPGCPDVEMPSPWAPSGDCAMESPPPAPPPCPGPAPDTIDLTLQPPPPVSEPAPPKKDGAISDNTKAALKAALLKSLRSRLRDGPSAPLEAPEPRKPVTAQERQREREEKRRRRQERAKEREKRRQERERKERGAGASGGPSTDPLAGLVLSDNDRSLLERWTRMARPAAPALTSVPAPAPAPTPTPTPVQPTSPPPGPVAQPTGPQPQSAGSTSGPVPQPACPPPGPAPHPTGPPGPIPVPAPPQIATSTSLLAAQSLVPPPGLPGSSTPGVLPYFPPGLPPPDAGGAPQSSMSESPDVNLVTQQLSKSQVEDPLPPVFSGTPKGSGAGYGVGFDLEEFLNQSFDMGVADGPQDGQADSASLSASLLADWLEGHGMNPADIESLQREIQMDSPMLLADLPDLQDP
Sequence of Serine/threonine-protein kinase SBK1 (Homo sapiens) (Q52WX2 whole entry): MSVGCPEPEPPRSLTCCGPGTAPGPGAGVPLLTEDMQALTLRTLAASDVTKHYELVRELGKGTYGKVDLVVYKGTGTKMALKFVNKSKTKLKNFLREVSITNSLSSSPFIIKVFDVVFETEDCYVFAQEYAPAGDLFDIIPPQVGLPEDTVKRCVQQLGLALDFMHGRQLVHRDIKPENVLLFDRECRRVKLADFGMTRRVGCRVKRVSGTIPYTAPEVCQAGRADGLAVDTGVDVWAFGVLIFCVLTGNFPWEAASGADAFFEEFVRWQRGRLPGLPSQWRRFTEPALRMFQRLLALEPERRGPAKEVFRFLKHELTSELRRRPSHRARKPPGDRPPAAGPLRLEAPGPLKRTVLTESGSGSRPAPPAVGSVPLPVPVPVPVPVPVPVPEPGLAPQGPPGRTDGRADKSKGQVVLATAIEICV
Sequence of Serine/threonine-protein kinase STK11 (Homo sapiens) (Q15831 whole entry): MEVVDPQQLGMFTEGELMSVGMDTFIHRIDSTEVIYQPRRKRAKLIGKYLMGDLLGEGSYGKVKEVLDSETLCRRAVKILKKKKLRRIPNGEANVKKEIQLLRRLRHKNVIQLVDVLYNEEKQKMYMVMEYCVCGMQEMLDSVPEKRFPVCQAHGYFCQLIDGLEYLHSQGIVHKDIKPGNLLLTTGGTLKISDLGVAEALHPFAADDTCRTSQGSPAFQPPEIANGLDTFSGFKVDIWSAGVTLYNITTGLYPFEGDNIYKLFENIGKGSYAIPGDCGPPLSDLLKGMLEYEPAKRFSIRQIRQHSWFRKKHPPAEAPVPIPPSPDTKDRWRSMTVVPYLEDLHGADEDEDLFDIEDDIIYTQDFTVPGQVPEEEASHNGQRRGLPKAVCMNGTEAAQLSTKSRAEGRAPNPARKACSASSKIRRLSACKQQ

COc1cnccc1Nc1nc(-c2nn(Cc3c(F)cc(OCCO)cc3F)c3ccccc23)ncc1OC
Ki [1]: 9.44 µM | pKi [2]: < 5 | Ki ([2]; read-out: Ki): > 10 µM | inhibition [3]: 54% | IC50 [4]: 0.0065 µM (active) | residual activity [5]: 72% | residual activity [6]: 74% | residual activity [7]: 78% | residual activity [8]: 79% | residual activity [9]: 81% | residual activity [10]: 82% | residual activity [11]: 83% | residual activity [12]: 85% | residual activity [13]: 87% | residual activity [14]: 87% | residual activity [15]: 88% | residual activity [16]: 90% | residual activity [17]: 90% | residual activity [18]: 92% | residual activity [19]: 92% | residual activity [20]: 93% | residual activity [21]: 94% | residual activity [22]: 94% | residual activity [23]: 94% | residual activity [24]: 95% | residual activity [25]: 96% | residual activity [26]: 97% | residual activity [27]: 97% | residual activity [28]: 98% | residual activity [29]: 99% | residual activity [30]: 99% | residual activity [31]: 100% | residual activity [32]: 100% | residual activity [33]: 100% | residual activity [34]: 100% | residual activity [35]: 100% | residual activity [36]: 100% | residual activity [37]: 100% | residual activity [38]: 100% | residual activity [39]: 100% | residual activity [40]: 100% | residual activity [41]: 100% | residual activity [42]: 100% | residual activity [43]: 100% | inhibition [44]: 32% | Cell Proliferation IC50 (SK-BR-3): 1.1 µM | Cell Proliferation IC50 (Caco-2): 1 µM | inhibition [45]: 15.2%
